Test results published in patent US10399981B2, “Crystal form A of 7-(cyclopropylmethyl)-1-(((cis )-4-hydroxy-4-methylcyclohexyl)methyl)-3-methyl-1H-purine-2,6-(3H,7H)-dione for treating liver diseases” (GUANGDONG RAYNOVENT BIOTECH CO., LTD., priority 2015, dated 2019).
Converted amounts (≈) assume the structure as drawn. Each block holds one compound with its values, some of them ahead of it.

Tests used:
[1] = Evaluation on pharmacokinetics of compound in SD rats; format: in vivo; conditions: male, Sprague-Dawley, rat, plasma; for clearance / AUC / half-life: single intravenous injection and oral administration; for clearance: read-out: Clearance rate; for AUC: read-out: Concentration integral AUC; for half-life: read-out: Half life T1/2 (converted)
Procedure: Experimental objective: To test the pharmacokinetics of a compound in SD rats
Experimental materials: Sprague Dawley rats (male, 200-300 g, 7-9 weeks old, Shanghai SLAC)
Pharmacokinetic characteristics of rodents after intravenous injection and oral administration of the compound were tested using a standard scheme. In the experiment, a candidate compound was prepared into a clear solution, which was administrated to rats by single intravenous injection and oral administration. The solvent for intravenous injection and oral administration is water solution or normal saline solution of hydroxypropyl 3 cyclodextrin at a certain proportion. A whole blood sample was collected within 24 hours, and 3000 g of the sample was centrifuged for 15 minutes. The supernatant was separated to obtain blood plasma samples, to which 4 times volume of an acetonitrile solution containing an internal standard substance was added to precipitate protein. After centrifuging, the supernatant was collected, equivalent volume of water was added, the resulting solution was recentrifuged, and the supernatant was collected for sample injection. The blood concentration was quantitatively analyzed by LC-MS/MS, and the pharmacokinetic parameters were calculated, such as peak concentration, time to peak, clearance rate, half life, area under the curve and bioavailability.

[2] = target: T1, recombinant full-length human PDE2A protein (Homo sapiens, UniProt O00408); assay: In vitro evaluation on inhibition activities of PDE2 phosphodiesterase (fluorescence polarization, Transcreener AMP2/GMP2); format: biochemical; conditions: substrate 1 μM cGMP
T1 construct: A recombinant full-length human PDE2A protein; GST (N); made in house; host or cells: Sf9 insect cells (baculovirus)
T1 sequence (O00408 whole entry): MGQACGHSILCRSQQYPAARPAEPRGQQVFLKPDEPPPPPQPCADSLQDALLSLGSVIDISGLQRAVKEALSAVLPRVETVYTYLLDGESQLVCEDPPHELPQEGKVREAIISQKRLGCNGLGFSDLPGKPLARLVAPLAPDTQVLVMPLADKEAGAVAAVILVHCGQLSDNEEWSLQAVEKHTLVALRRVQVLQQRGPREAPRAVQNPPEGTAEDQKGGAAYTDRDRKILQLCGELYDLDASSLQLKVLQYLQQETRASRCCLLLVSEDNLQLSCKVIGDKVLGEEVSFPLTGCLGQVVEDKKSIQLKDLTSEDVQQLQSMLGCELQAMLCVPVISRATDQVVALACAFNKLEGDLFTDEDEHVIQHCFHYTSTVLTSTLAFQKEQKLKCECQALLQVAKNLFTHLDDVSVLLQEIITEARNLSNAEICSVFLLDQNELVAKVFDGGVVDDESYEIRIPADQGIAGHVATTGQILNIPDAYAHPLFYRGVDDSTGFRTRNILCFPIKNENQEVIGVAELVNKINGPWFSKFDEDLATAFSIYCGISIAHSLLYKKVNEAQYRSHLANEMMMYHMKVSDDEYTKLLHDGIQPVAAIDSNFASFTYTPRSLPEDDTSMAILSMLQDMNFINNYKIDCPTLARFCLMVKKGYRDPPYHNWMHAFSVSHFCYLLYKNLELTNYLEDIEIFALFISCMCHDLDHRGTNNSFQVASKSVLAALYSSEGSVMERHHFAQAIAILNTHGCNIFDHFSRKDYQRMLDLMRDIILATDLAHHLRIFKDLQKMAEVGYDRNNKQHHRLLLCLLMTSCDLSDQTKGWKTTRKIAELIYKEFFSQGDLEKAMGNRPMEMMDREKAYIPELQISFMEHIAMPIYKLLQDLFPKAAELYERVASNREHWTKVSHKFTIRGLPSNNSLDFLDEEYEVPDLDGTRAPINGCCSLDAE
Procedure: Experimental objective: the concentrations of AMP/GMP generated in the reaction system was detected by detecting a substituted AlexaFluor 633 fluorochrome on AMP/GMP antibodies through fluorescence polarization analysis, and IC50 of PDE2 phosphodiesterase against compound to be detected was calculated.
Buffer solution for determination: 10 mM Tris-HCl, pH 7.5, 5 mM MgCl2, 0.01% Brij 35, 1 mM DTT, and 1% DMSO.
Enzyme: A recombinant full-length human PDE2A protein was expressed by baculovirus in Sf9 insect cells using an N-terminal GST tag
Transcreener® AMP^2/GMP^2 antibody, AMP2/GMP2 AlexaFluor 633 fluorochrome
An enzyme solution was prepared from a freshly prepared buffer solution, and then added to a reaction cavity, a DMSO solution of compound to-be-detected was added through an Echo550 contactless nanoliter pipetting system, and then the resulting solution was preincubated for 10 min at room temperature. A substrate (1 μM cGMP) was added to initiate reaction, which was kept at room temperature for 1 h. […] Fluorescence polarization was detected using Ex/Em 620/688.
Fluorescence polarization intensity was converted to nM concentration through AMP/GMP standard curves, then relative enzymatic activity inhibition was calculated compared with DMSO blank control, and IC50 and curve thereof was calculated using Prism software package (GraphPad Software, San Diego Calif., USA).

LPS-induced TNF-α = assay: In vitro influence of compound on LPS-induced TNF-α in blood (ELISA); format: cell-based, Sprague Dawley rats; conditions: rat blood, compound 100 uM, 5 h
Procedure: Experimental objective: to detect the influence of compound on LPS-induced TNF-α in blood of […] in vitro, and to evaluate inhibiting effects of the compound on LPS-induced TNF-α in blood of […].
Sprague Dawley rats (male, 210-260 g, 8-10 weeks old, Shanghai SLAC)
Rat TNF-alpha Quantikine ELISA Kit (R&D, #SRTA00)
The solution of compound to-be-detected at a concentration of 1 mM was prepared, and 40 μL (final concentration of the compound: 100 uM) was respectively added to a 48-well cell culture plate. After rats were anesthetized with isoflurane, blood samples were collected from their hearts (heparin anticoagulation). The blood was added to the to-be-detected compound present in the 48-well plate with 320 μL/well. The 48-well plate was incubated in a cell incubator for 30 min. Then 40 μL of LPS solution (100 ug/ml) was added, and fully mixed. The plate was further incubated in the incubator. 5 h later, the 48-well plate was taken out. The blood samples were transferred to 1.5 ml centrifuge tubes, and centrifuged in a centrifuge (4,500 rpm, 4° C., 5 minutes). The supernatant was separated to obtain blood plasma, which was subpackaged, quickly frozen, and kept in a refrigerator at −80° C. On the next day, the TNF-α levels in blood plasma samples were detected using an R&D ELISA kit.

[3] = Stability test of crystal form A solid (accelerated, 40° C./75% humidity, open); format: physicochemical
Procedure: A crystal form A was put in an open container at a constant temperature and humidity for accelerated test respectively at 40° C./75% humidity (open). Samples were collected in 1st, 2nd and 3rd months and tested, and the test results were compared with the initial test results on 0th day.

[4] = Solubility of crystal form A in different solvents; format: physicochemical; conditions: thermodynamic from solid, room temperature
Procedure: About 2 mg of crystal form A was weighed put in a 1.5 mL liquid phase vial, to which the following solvents were respectively added by pipettes by stages to dissolve the crystal form A while manually vibrating.

[5] = 40° C./75% humidity (open), 1 month
[6] = 40° C./75% humidity (open), 2 months
[7] = 40° C./75% humidity (open), 3 months

bioavailability ([1]; oral administration, read-out: Bioavailability F): 47.9% | clearance [1]: 54.4 mL/min/kg | AUC [1]: 4.39 µM·h | half-life [1]: 47.6 min | IC50 [2]: 1 to 10 µM
SMILES: Cn1c(=O)n(C[C@H]2CC[C@@](C)(O)CC2)c(=O)c2c1ncn2CC1CC1 [Compound (I), 7-(cyclopropylmethyl)-1-(((cis)-4-hydroxy-4-methylcyclohexyl)methyl)-3-methyl-1H-purine-2,6-(3H, 7H)-dione]
TNF-α Inhibition Ratio (LPS-induced TNF-α): ++ (80% ≤ “++” < 100%)

Appearance [3, 5]: White powder | Content [3, 5]: 101.4% | Total Impurities [3, 5]: 0.31% | Appearance [3, 6]: White powder | Content [3, 6]: 98.8% | Total Impurities [3, 6]: 0.34% | Appearance [3, 7]: White powder | Content [3, 7]: 101.8% | Total Impurities [3, 7]: 0.32% | Appearance ([3]; Initial, 0 month): White powder | Content ([3]; Initial, 0 month): 101.6% | Total Impurities ([3]; Initial, 0 month): 0.33% | solubility ([4]; aqueous with cosolvent or surfactant or cyclodextrin, Acetone-water (1:2)): ~1 mg/mL (≈ 2.89 mM) | solubility ([4]; aqueous with cosolvent or surfactant or cyclodextrin, Acetonitrile-water (1:1)): ~22.2 mg/mL (≈ 64.1 mM) | solubility ([4]; aqueous with cosolvent or surfactant or cyclodextrin, Ethanol-water (1:1)): ~16.3 mg/mL (≈ 47.1 mM) | solubility ([4]; aqueous with cosolvent or surfactant or cyclodextrin, Ethanol-water (3:1)): ~24.5 mg/mL (≈ 70.7 mM) | solubility ([4]; aqueous with cosolvent or surfactant or cyclodextrin, Isopropanol-water (1:1)): ~17.3 mg/mL (≈ 49.9 mM) | solubility ([4]; aqueous with cosolvent or surfactant or cyclodextrin, Methanol-water (1:1)): ~7.8 mg/mL (≈ 22.5 mM) | solubility ([4]; aqueous with cosolvent or surfactant or cyclodextrin, Methanol-water (3:1)): ~19 mg/mL (≈ 54.8 mM) | solubility ([4]; organic solvent or mixture, 2-methyltetrahydrofuran): ~24.2 mg/mL (≈ 69.9 mM) | solubility ([4]; organic solvent or mixture, Acetone): ~17.2 mg/mL (≈ 49.6 mM) | solubility ([4]; organic solvent or mixture, Acetonitrile): ~13 mg/mL (≈ 37.5 mM) | solubility ([4]; organic solvent or mixture, Butanone): ~37.2 mg/mL (≈ 107 mM) | solubility ([4]; organic solvent or mixture, Cyclohexane): < 1 mg/mL | solubility ([4]; organic solvent or mixture, Dioxane): > 57 mg/mL | solubility ([4]; organic solvent or mixture, Ethanol): ~11.2 mg/mL (≈ 32.3 mM) | solubility ([4]; organic solvent or mixture, Ethyl acetate): ~15.2 mg/mL (≈ 43.9 mM) | solubility ([4]; organic solvent or mixture, Isopropanol): ~10.1 mg/mL (≈ 29.2 mM) | solubility ([4]; organic solvent or mixture, Isopropyl acetate): ~12 mg/mL (≈ 34.6 mM) | solubility ([4]; organic solvent or mixture, Methanol): ~28.7 mg/mL (≈ 82.8 mM) | solubility ([4]; organic solvent or mixture, Methyl isobutyl ketone): ~10.9 mg/mL (≈ 31.5 mM) | solubility ([4]; organic solvent or mixture, Methyl tertiary butyl ether): ~2.6 mg/mL (≈ 7.51 mM) | solubility ([4]; organic solvent or mixture, Methylbenzene): < 1 mg/mL | solubility ([4]; organic solvent or mixture, Tetrahydrofuran): > 67 mg/mL | solubility ([4]; organic solvent or mixture, n-butanol): ~20.5 mg/mL (≈ 59.2 mM) | solubility ([4]; organic solvent or mixture, n-heptane): < 1 mg/mL | solubility ([4]; Water): < 1 mg/mL
SMILES: Cn1c(=O)n(C[C@H]2CC[C@@](C)(O)CC2)c(=O)c2c1ncn2CC1CC1 [Crystal Form A, 7-(cyclopropylmethyl)-1-(((cis)-4-hydroxy-4-methylcyclohexyl)methyl)-3-methyl-1H-purine-2,6-(3H, 7H)-dione]

SMILES: CC(=O)CCCCn1c(=O)c2c(ncn2C)n(C)c1=O [Pentoxifylline, reference compound]
clearance [1]: 74.1 mL/min/kg | AUC [1]: 6.62 µM·h | half-life [1]: 11.5 min
